Laboratory results reported in US20090209613A1, “Use of allymercaptocaptopril for treating or preventing obesity and obesity related diseases” (Yeda Researc And Development Co. Ltd. at the Weizmann …, priority 2005, published 2009).

Legend:
[1] = Body weight gain of SHROB rats fed drug-supplemented chow; assay type: in vivo, rat; conditions: for effect on body weight gain: compared with non-treated control, FIG. 1
Procedure: (§1) Animals: Obese spontaneously […] rats with a naturally occurring knockout of the leptin receptor (SHROB; Koletsky et al., pp. 143-158 in: Sima AAF and Shafrir (eds) Animal Models of Diabetes: A Primer, Harwood, Singapore, 2001) were used. Adult (4-5 months old) male and female SHROB were maintained essentially as described by Velliquette and Emsberger (JPET 307: 1104-1111, 2003). Briefly, animals were housed individually at a constant temperature of 21° C. on a 12:12 hours light/dark cycle. The animals were given ad libitum access to food (Teklad 8664 rat chow) and were maintained for a period of 60 days. The procedures were carried out in accordance with applicable laws and accepted guidelines for animal welfare.
(§2) Either CPSSA or captopril were dissolved in a 20% ethanol solution, chilled on ice, and were then thoroughly mixed with powdered rat chow in equivalent molar amounts of 1.107 and 0.827 gram/kg, respectively.
(§3) Eight SHROB rats (4 males, 4 females) were used in each treatment group. Animals were fed with chow supplemented with either CPSSA or captopril, or with standard (non-supplemented) chow diet, which served as a control. Measurements of body weight, food consumption and blood pressure were conducted 3 times a week for the duration of the experiment.

[2] = Food consumption of SHROB rats fed drug-supplemented chow; assay type: in vivo, rat; conditions: throughout the experiment, FIG. 2
Procedure: as §1, §2, §3

[3] = Systolic blood pressure of SHROB rats fed drug-supplemented chow; assay type: in vivo, rat
Procedure: Briefly, animals were housed individually at a constant temperature of 21° C. on a 12:12 hours light/dark cycle. […] The procedures were carried out in accordance with applicable laws and accepted guidelines for animal welfare.
as §3

[4] = cited from earlier work
[5] = in vivo; cited from earlier work
[6] = day 20, drug in chow ad libitum
[7] = day 53, drug in chow ad libitum

| SMILES | effect on body weight gain [1] | average body weight gain [1, 6] | average body weight gain [1, 7] | food uptake [2] | average systolic blood pressure ([3]; day 14) | average systolic blood pressure ([3]; day 28) | average systolic blood pressure ([3]; day 56) | effect on blood pressure ([3]; FIG. 3) | stability in blood or plasma ([4]; blood or plasma of mammals) | reaction with serum proteins ([4]; serum proteins) | blood pressure [5] | serum level of insulin [5] | serum level of triglycerides [5] |
| --- | --- | --- | --- | --- | --- | --- | --- | --- | --- | --- | --- | --- | --- |
| C[C@H](CS)C(=O)N1CCC[C@H]1C(=O)O [captopril] | had no effect on body weight gain | 7.3% | 11.8% | no differences were observed in the food uptake | 165.5 | 159.3 | 159.7 | – | – | – | – | – | – |
| C=CCSSC[C@H](C)C(=O)N1CCC[C@H]1C(=O)O [CPSSA, Allylmercaptocaptopril] | effectively prevented body weight gain | 0.6% | −0.1% | no differences were observed in the food uptake | 165.6 | 146.8 | 140.3 | substantially reduced the blood pressure | stable in blood or plasma of mammals | reacts very sluggishly with serum proteins | significantly decreases blood pressure | reduces | reduces |
